Assays:
CYP2C9 = biological target: T1, CYP2C9 (Homo sapiens, UniProt P11712); assay: CYP inhibitory test using human liver microsome; format: in vitro ADME; details: human liver microsomes, pH 7.4, probe diclofenac, model substrate diclofenac, 37° C. 10 min, LC/MS/MS, read-out: CYP2C9 inhibition IC50
T1 construct: Human liver microsome (20 mg protein/mL, 5 μL, Xenotech LLC, purchased from Lenexa Kans.); tissue Xenotech LLC; host or cells: human liver microsome
Protocol: Reference Experimental Example 2 Cyp Inhibitory Test Using Human Liver Microsome
Human liver microsome (20 mg protein/mL, 5 μL, Xenotech LLC, purchased from Lenexa Kans.) was suspended in 100 mM potassium phosphate buffer (70 μL, pH 7.4), mixed with a solution (0.5 μL) of the Example compound dissolved in DMSO and preincubated at 37° C. for 5 min. NADPH producing system coenzyme solution (β-nicotinamide adenine dinucleotide phosphate: 5.2 mM, D-glucose-6-phosphate: 13.2 mM, magnesium chloride: 13.2 mM, glucose-6-phosphate dehydrogenase: 1.8 U/mL) 25 μL, and a model substrate (CYP3A4: midazolam 1 mM, CYP2D6: bufuralol 1 mM, CYP2C9: diclofenac 2 mM) 0.5 μL dissolved in DMSO were added to start the reaction. After incubation at 37° C. for 10 min., acetonitrile (200 μL) containing an internal standard substance (propranolol 1 μM) was added and the mixture was centrifuged (room temperature, 3000 rpm, 20 min). The amount of the metabolite produced from each model substrate in the supernatant was measured by high performance liquid chromatography/mass spectrometry (LC/MS/MS) and each CYP enzyme activity was determined. The concentration showing 50% inhibition (IC50) was calculated relative to the enzyme activity without addition of Example compound (DMSO 0.5 μL added) as 100%.

human URAT1 = biological target: T2, human URAT1 (Homo sapiens, UniProt Q96S37); assay: Uric acid transport inhibitory test using human URAT1-expressing cells; format: cell-based; details: human URAT1 expressing HEK293 cells, uptake of 14C-labeled uric acid for 5 min, room temperature; read-out: hURAT1 (IC50, concentration necessary for inhibiting the uric acid transport rate by 50%)
T2 construct: Human URAT1 full length cDNA was subcloned to expression vector pcDNA3.1; expressed in transfected cells; host or cells: HEK293 cells (pcDNA3.1, geneticin-selected)
T2 sequence (Q96S37 1-553): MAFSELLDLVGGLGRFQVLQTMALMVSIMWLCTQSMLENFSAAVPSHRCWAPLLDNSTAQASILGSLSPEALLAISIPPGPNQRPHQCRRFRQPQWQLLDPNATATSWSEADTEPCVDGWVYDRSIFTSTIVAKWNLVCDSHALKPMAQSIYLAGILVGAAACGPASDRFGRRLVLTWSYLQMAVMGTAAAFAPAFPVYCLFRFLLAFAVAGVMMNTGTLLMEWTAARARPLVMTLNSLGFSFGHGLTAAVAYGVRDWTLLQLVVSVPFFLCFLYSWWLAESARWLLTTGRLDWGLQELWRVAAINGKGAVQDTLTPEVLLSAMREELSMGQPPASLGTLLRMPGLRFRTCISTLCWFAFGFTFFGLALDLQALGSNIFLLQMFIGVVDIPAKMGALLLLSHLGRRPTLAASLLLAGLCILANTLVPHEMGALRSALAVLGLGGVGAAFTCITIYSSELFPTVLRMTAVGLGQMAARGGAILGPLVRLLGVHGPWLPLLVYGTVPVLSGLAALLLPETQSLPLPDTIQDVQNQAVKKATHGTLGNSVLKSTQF
Excerpt: Reference Experimental Example 1 Uric Acid Transport Inhibitory Test Using Human Urat1-Expressing Cells
Human URAT1 full length cDNA was subcloned to expression vector pcDNA3.1 and human URAT1 gene was transfected into human embryonic kidney derived cell line (HEK293 cells) by liposome method using Lipofectamine2000. Simultaneously, HEK293 cells transfected with expression vector pcDNA3.1 alone (hereinafter mock cells) were also produced. HEK293 cells expressing human URAT1 gene or mock cells were selected with geneticin resistance as an index. The functional expression of human URAT1 gene was confirmed by a method similar to the following method, using transport of uric acid labeled with ^14C into the cells as an index.
Human URAT1 expressing HEK293 cells or mock cells were cultured in Dulbecco's modified Eagle's MEM medium (high glucose) containing 10% fetal bovine serum, 0.5 mg/mL geneticin sulfate, 100 units/mL penicillin and 100 μg/mL streptomycin under the conditions of 37° C. and 5% CO2 in an incubator. The cells were plated in a 96 well plate (poly-D-Lysine coated) at 1×10^5 cells/well and the following uric acid transport inhibitory test was performed 24 hr later. This test was performed at room temperature.
After the medium was removed by aspiration from each well, the cells were washed once with Hank's Balanced Salt Solution (HBSS) and preincubated with HBSS ([…]) for 5 min. HBSS was aspirated and an assay buffer (wherein NaCl in the above-mentioned HBSS had been substituted with Na-gluconate) containing various concentrations of the Example compound and a radioactive ligand (uric acid labeled with 14C; final concentration […]) was added to each well at […] and an uptake reaction was carried out for 5 min. After the reaction, the cells were washed twice with ice-cold HBSS ([…]), and Microscin ti TM 20 (PerkinElmer) was added at […]. The cells were lysed by stirring and the radioactivity of each well was measured in a liquid scintillation counter (TOP COUNT, Packard).
The uric acid transport rate (%) of the Example compound at each concentration was calculated relative to the radioactivity (difference in radioactivity between human URAT1 expressing HEK293 cells and mock cells without addition of Example compound (DMSO addition)) showing URAT1 specific uric acid transport as 100%, and the concentration (IC50) of the Example compound necessary for inhibiting the uric acid transport rate by 50% was determined. In Table-Table, “+++” means IC50 value of less than 100 nM, “++” means IC50 value of 100 nM to less than 1000 nM, and “+” means IC50 value of 1000 nM to less than 3000 nM.

T1 sequence (P11712 whole entry): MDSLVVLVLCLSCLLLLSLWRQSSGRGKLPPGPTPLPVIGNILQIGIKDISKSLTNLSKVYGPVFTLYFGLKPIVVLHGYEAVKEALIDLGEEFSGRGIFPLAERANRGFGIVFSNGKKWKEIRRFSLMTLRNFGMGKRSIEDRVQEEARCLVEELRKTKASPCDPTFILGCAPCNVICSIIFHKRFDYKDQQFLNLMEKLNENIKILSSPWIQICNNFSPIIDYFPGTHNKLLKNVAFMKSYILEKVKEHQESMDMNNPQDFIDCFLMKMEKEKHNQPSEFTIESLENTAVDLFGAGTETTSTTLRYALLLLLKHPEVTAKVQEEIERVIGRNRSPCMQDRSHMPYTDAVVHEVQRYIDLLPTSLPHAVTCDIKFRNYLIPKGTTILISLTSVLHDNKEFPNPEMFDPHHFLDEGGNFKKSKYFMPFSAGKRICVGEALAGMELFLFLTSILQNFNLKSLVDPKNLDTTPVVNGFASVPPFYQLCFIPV

SMILES	IC50 at 10 min (CYP2C9)	IC50 (human URAT1)
O=C(c1cc(Cl)c(O)c(Cl)c1)N1CCCOc2ccccc21 [Example 94]	6000 nM	100 to 1000 nM
Nc1ccc2c(c1)CCN2C(=O)c1cc(Cl)c(O)c(Cl)c1 [Example 78, (5-amino-2,3-dihydroindol-1-yl)-(3,5-dichloro-4-hydroxyphenyl)-methanone]	–	100 to 1000 nM
O=C(c1cc(Cl)c(O)c(Cl)c1)N1CCOc2ccc(F)cc21 [Example 44, (3,5-dichloro-4-hydroxyphenyl)-(6-fluoro-2,3-dihydrobenzo[1,4]oxazin-4-yl)-methanone]	–	< 100 nM
COC(=O)c1cccc2c1N(C(=O)c1cc(Cl)c(O)c(Cl)c1)CCO2 [Example 58, methyl 4-(3,5-dichloro-4-hydroxybenzoyl)-3,4-dihydro-2H-benzo[1,4]oxazine-5-carboxylate]	–	100 to 1000 nM
O=C(c1cc(Cl)c(O)c(Cl)c1)N1CCOc2cccc(O)c21 [Example 89, (3,5-dichloro-4-hydroxyphenyl)-(5-hydroxy-2,3-dihydrobenzo[1,4]oxazin-4-yl)-methanone]	–	< 100 nM
O=C(c1ccc(Cl)c(O)c1)N1CCOc2ccccc21 [Example 41, (4-chloro-3-hydroxyphenyl)-(2,3-dihydrobenzo[1,4]oxazin-4-yl)-methanone]	–	100 to 1000 nM
O=C1COc2ccccc2N1C(=O)c1cc(Cl)c(O)c(Cl)c1 [Example 24, 4-(3,5-dichloro-4-hydroxybenzoyl)-4H-benzo[1,4]oxazin-3-one]	–	1000 to 3000 nM
O=C(c1ccc(O)c(Br)c1)N1CCOc2ccccc21 [Example 2, (3-bromo-4-hydroxyphenyl)-(2,3-dihydrobenzo[1,4]oxazin-4-yl)-methanone]	–	< 100 nM

Reference: patent publication US20080064871A1, “Production Method of Nitrogen-Containing Fused Ring Compounds” (Japan Tobacco Inc., priority 2006, published 2008)
